Data as given in patent US20260297129A1, “PEPTIDES AS SELECTIVE IL-23 RECEPTOR INHIBITORS” (SANOFI, priority 2023, published 2026).
Like-named read-outs stand apart in the source and are kept apart here. Numbered stars: 1 amine (or outer) side, 2 acyl side, 3 side chain; on linkers, the order of the positions; unused ones are H or OH. Bridge positions count the residues as written; N and C are the ends. Square brackets hold non-standard residues; d marks the D form. Peptide text beside a SMILES is read from it. * marks the point of attachment. Trp(7-Me) = Cc1cccc2c(C[C@H](N)C(=O)O)c[nH]c12; Sebacoyl = O=C(CCCCCCCCC(=O)[*:2])[*:1]; NH(CH2)9CO = O=C(CCCCCCCCCN[*:1])[*:2]; 2Nal = N[C@@H](Cc1ccc2ccccc2c1)C(=O)O; Suberoyl = O=C(CCCCCCC(=O)[*:2])[*:1]; d2Nal = N[C@H](Cc1ccc2ccccc2c1)C(=O)O; C12 diacid = O=C(O)CCCCCCCCCCC(=O)*; X1 = O=C(CCCCCCCCCCCCCN[*:1])[*:2]; 3Pal = N[C@@H](Cc1cccnc1)C(=O)O; 12Ado = NCCCCCCCCCCCC(=O)O; Aun = NCCCCCCCCCCC(=O)O; Thp = NC1(C(=O)O)CCOCC1; Me2NCH2CH2 = CN(C)CC*; Aib = CC(C)(N)C(=O)O; Aoc = NCCCCCCCC(=O)O; Sar = CNCC(=O)O

Assays:
[1] = Chemical stability (relative purity loss) of peptide compounds in buffer formulations (Table 6); format: physicochemical; settings: 2° C. and 37° C.
Summary of the method: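 Compounds at 0.5 mg/mL in 50 mM HCl pH 1.2, 50 mM phosphate pH 6.5 or pH 7.4, each with acetonitrile (3:1), stored 24 hours at 2° C and 37° C. Purity measured by UHPLC-UV before and after. Stability expressed as relative purity loss.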

[2] = Protease stability in simulated intestinal fluids (FaSSIF) (Table 7); format: in vitro ADME; settings: fassif with pancreatin, 37° C.; for remaining at 1 h, 1 µM: 60 min, read-out: Remaining percentage of peptide compound, FaSSIF 60 (min); for remaining at 2 h, 1 µM: 120 min, read-out: Remaining percentage of peptide compound, FaSSIF 120 (min); for remaining at 4 h, 1 µM: 240 min, read-out: Remaining percentage of peptide compound, FaSSIF 240 (min)
Summary of the method: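 1 μM peptide incubated at 37° C in simulated fluid (pancreatin-SIF prepared from pancreatin in SIF concentrate). Samples quenched with acidified ethanol at 0, 60, 120 and 240 min and analysed by LC-MS/MS. Percentage remaining from peak area relative to T0 (100%).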

[3] = Protease stability in simulated gastric fluids (FaSSGF) (Table 7); format: in vitro ADME; settings: fassgf with pepsin, 60 min, 37° C., read-out: Remaining percentage of peptide compound, FaSSGF 60 (min)
Summary of the method: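 Peptides at 1 μM final were incubated at 37 °C in simulated gastric fluid with pepsin (320 mg per 100 mL SGF concentrate). Samples were quenched with ethanol (0.1% HCOOH) at 0, 60, 120 and 240 min and analysed by LC-MS/MS. Percent remaining is the peak area relative to T0 (100%).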

[4] = system: IL-23 induced STAT3 signaling (IL-23 receptor) in HEK-Blue IL-23 cells; experiment: Inhibition of IL-23 induced STAT3 signaling in HEK-Blue IL-23 cells, SEAP reporter (Table 9); format: cell-based; settings: human IL23 0.25 ng/ml, overnight, read-out: Inhibition of IL-23 induced pSTAT3 (IC50 nM)
Summary of the method: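 HEK-Blue IL-23 reporter cells (10,000/well) pre-incubated 60 min at 37 °C with serially diluted peptides, then stimulated overnight with human IL-23 at 0.25 ng/ml final. SEAP in supernatant read by QUANTI-Blue, 45 min room temperature, OD 620–655 nm; dose-response curve fitting.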

[5] = 50 mM phosphate buffer pH 6.5 + acetonitrile (3:1), read-out: Chemical stability (relative purity loss), Buffer pH 6.5
[6] = 50 mM phosphate buffer pH 7.4 + acetonitrile (3:1), read-out: Chemical stability (relative purity loss), Buffer pH 7.4
[7] = 50 mm hcl + acetonitrile, Buffer pH 1.1 (head; method: 50 mM HCl pH 1.2 + acetonitrile 3:1), read-out: Chemical stability (relative purity loss), Buffer pH 1.1

| Structure (SMILES) | degraded at 24 h [1, 5] [%] | degraded at 24 h [1, 6] [%] | degraded at 24 h [1, 7] [%] | remaining at 1 h, 1 µM [2] [%] | remaining at 2 h, 1 µM [2] [%] | remaining at 4 h, 1 µM [2] [%] | remaining at 1 h, 1 µM [3] [%] | IC50 [4] [nM] |
| --- | --- | --- | --- | --- | --- | --- | --- | --- |
| Cc1cccc2c(C[C@@H]3NC(=O)CCCCCCCCCNC(=O)CC[C@@H](C(=O)N[C@@H](CC(N)=O)C(=O)N[C@@H](Cc4cccnc4)C(=O)N(C)CC(N)=O)NC(=O)C(C)(C)NC(=O)[C@H](Cc4ccc5ccccc5c4)NC(=O)[C@H](Cc4ccc(OCCN(C)C)cc4)NC(=O)C4(CCOCC4)NC(=O)[C@H](CC(C)C)NC3=O)c[nH]c12 [compound 8] ([NH(CH2)9CO][Trp(7-Me)]L[Thp]Y(Me2NCH2CH2)[2Nal][Aib]EN[3Pal][Sar]-NH2; lactam N-8) | 0 | 0 | 6.2 | 79 | 79 | 72 | 7 | 1.85 |
| Cc1cccc2c(C[C@@H]3NC(=O)CCCCCCC(=O)NCCCC[C@@H](C(=O)N[C@@H](CC(N)=O)C(=O)N[C@@H](Cc4cccnc4)C(=O)N(C)CC(N)=O)NC(=O)C(C)(C)NC(=O)[C@H](Cc4ccc5ccccc5c4)NC(=O)[C@H](Cc4ccc(OCCN(C)C)cc4)NC(=O)C4(CCOCC4)NC(=O)[C@H](CCC(N)=O)NC3=O)c[nH]c12 [compound 12] ([Trp(7-Me)]Q[Thp]Y(Me2NCH2CH2)[2Nal][Aib]KN[3Pal][Sar]-NH2; linker N-7 via Suberoyl) | 0 | 0 | 12 | 79 | 77 | 78 | 104 | 0.97 |
| Cc1cccc2c(C[C@@H]3NC(=O)CCCCCCCCC(=O)NCCCC[C@@H](C(=O)N[C@@H](CC(N)=O)C(=O)N[C@@H](Cc4cccnc4)C(=O)N(C)CC(N)=O)NC(=O)C(C)(C)NC(=O)[C@H](Cc4ccc5ccccc5c4)NC(=O)[C@H](Cc4ccc(OCCN(C)C)cc4)NC(=O)C4(CCOCC4)NC(=O)[C@H](CCC(N)=O)NC3=O)c[nH]c12 [compound 11] ([Trp(7-Me)]Q[Thp]Y(Me2NCH2CH2)[2Nal][Aib]KN[3Pal][Sar]-NH2; linker N-7 via Sebacoyl) | 0 | 0 | 7.9 | 74 | 73 | 69 | 98 | 0.28 |
| Cc1cccc2c(C[C@@H]3NC(=O)CCCCCCCCCCNC(=O)CC[C@@H](C(=O)N[C@@H](CC(N)=O)C(=O)N[C@@H](Cc4cccnc4)C(=O)N(C)CC(N)=O)NC(=O)C(C)(C)NC(=O)[C@@H](Cc4ccc5ccccc5c4)NC(=O)[C@H](Cc4ccc(OCCN(C)C)cc4)NC(=O)C4(CCOCC4)NC(=O)[C@H](CCC(N)=O)NC3=O)c[nH]c12 [compound 4] ([Aun][Trp(7-Me)]Q[Thp]Y(Me2NCH2CH2)[d2Nal][Aib]EN[3Pal][Sar]-NH2; lactam N-8) | 0 | 0 | 6.3 | 90 | 87 | 82 | 80 | 0.14 |
| CC(=O)NCCCC[C@@H]1NC(=O)[C@H](Cc2c[nH]c3c(C)cccc23)NC(=O)[C@@H](NC(C)=O)CCCCN(C)CCCCN(C)CCCC[C@@H](C(=O)N[C@@H](CC(N)=O)C(=O)N[C@@H](Cc2cccnc2)C(=O)N(C)CC(N)=O)NC(=O)C(C)(C)NC(=O)[C@@H](Cc2ccc3ccccc3c2)NC(=O)[C@H](Cc2ccc(OCCN(C)C)cc2)NC(=O)C2(CCOCC2)NC1=O [compound 13] | 0 | 0 | 3.1 | 90 | 89 | 88 | 90 | 0.17 |
| Cc1cccc2c(C[C@@H]3NC(=O)CCCCCCCCCCNC(=O)CC[C@@H](C(=O)N[C@@H](CC(N)=O)C(=O)N[C@@H](Cc4cccnc4)C(=O)N(C)CC(N)=O)NC(=O)C(C)(C)NC(=O)[C@H](Cc4ccc5ccccc5c4)NC(=O)[C@H](Cc4ccc(OCCN(C)C)cc4)NC(=O)C4(CCOCC4)NC(=O)[C@H](CC(C)C)NC3=O)c[nH]c12 [compound 7] ([Aun][Trp(7-Me)]L[Thp]Y(Me2NCH2CH2)[2Nal][Aib]EN[3Pal][Sar]-NH2; lactam N-8) | 0 | 0.5 | 3.9 | 80 | 81 | 82 | 6 | 1.73 |
| Cc1cccc2c(C[C@@H]3NC(=O)CCCCCCCCCCCNC(=O)CC[C@@H](C(=O)N[C@@H](CC(N)=O)C(=O)N[C@@H](Cc4cccnc4)C(=O)N(C)CC(N)=O)NC(=O)C(C)(C)NC(=O)[C@H](Cc4ccc5ccccc5c4)NC(=O)[C@H](Cc4ccc(OCCN(C)C)cc4)NC(=O)C4(CCOCC4)NC(=O)[C@H](CCC(N)=O)NC3=O)c[nH]c12 [compound 2] ([12Ado][Trp(7-Me)]Q[Thp]Y(Me2NCH2CH2)[2Nal][Aib]EN[3Pal][Sar]-NH2; lactam N-8) | 0 | 0.1 | 6.4 | 100 | 94 | 94 | 73 | 0.28 |
| Cc1cccc2c(C[C@@H]3NC(=O)CCCCCCCCCCC(=O)NCCCC[C@@H](C(=O)N[C@@H](CC(N)=O)C(=O)N[C@@H](Cc4cccnc4)C(=O)N(C)CC(N)=O)NC(=O)C(C)(C)NC(=O)[C@H](Cc4ccc5ccccc5c4)NC(=O)[C@H](Cc4ccc(OCCN(C)C)cc4)NC(=O)C4(CCOCC4)NC(=O)[C@H](CCC(N)=O)NC3=O)c[nH]c12 [compound 10] ([Trp(7-Me)]Q[Thp]Y(Me2NCH2CH2)[2Nal][Aib]KN[3Pal][Sar]-NH2; linker N-7 via C12 diacid) | 0 | 0 | 6.1 | 79 | 78 | 77 | 88 | 0.35 |
| Cc1cccc2c(C[C@@H]3NC(=O)CCCCCCCCCCCCCNC(=O)CC[C@@H](C(=O)N[C@@H](CC(N)=O)C(=O)N[C@@H](Cc4cccnc4)C(=O)N(C)CC(N)=O)NC(=O)C(C)(C)NC(=O)[C@H](Cc4ccc5ccccc5c4)NC(=O)[C@H](Cc4ccc(OCCN(C)C)cc4)NC(=O)C4(CCOCC4)NC(=O)[C@H](CCC(N)=O)NC3=O)c[nH]c12 [compound 1] ([X1][Trp(7-Me)]Q[Thp]Y(Me2NCH2CH2)[2Nal][Aib]EN[3Pal][Sar]-NH2; lactam N-8) | 0 | 0 | 6.2 | 96 | 90 | 90 | 77 | 1.14 |
| Cc1cccc2c(C[C@@H]3NC(=O)CCCCCCCNC(=O)CC[C@@H](C(=O)N[C@@H](CC(N)=O)C(=O)N[C@@H](Cc4cccnc4)C(=O)N(C)CC(N)=O)NC(=O)C(C)(C)NC(=O)[C@H](Cc4ccc5ccccc5c4)NC(=O)[C@H](Cc4ccc(OCCN(C)C)cc4)NC(=O)C4(CCOCC4)NC(=O)[C@H](CC(C)C)NC3=O)c[nH]c12 [compound 9] ([Aoc][Trp(7-Me)]L[Thp]Y(Me2NCH2CH2)[2Nal][Aib]EN[3Pal][Sar]-NH2; lactam N-8) | 0 | 0 | 5.6 | 74 | 76 | 74 | 59 | 10.8 |
